In patent US20220401414A1, “TREATMENT AND PREVENTION OF A NEURODEGENERATIVE DISORDER” (Inflazome Limited, priority 2019, published 2022):

Test: Study A: blood-brain barrier penetration, striatal MetaQuant microdialysis in healthy mice after oral dosing
Format: in vivo, C57B1/6 mice
Settings: for average peak levels in left and right striatal dialysate: MetaQuant dialysate, not corrected for recovery; for time of average peak levels after compound administration: striatal dialysate
Protocol: The present study was designed to determine the free concentration of the compound of formula (I) in the left and right striatum of freely-moving adult male mice after oral administration.
Adult male C57B1/6 mice (22-28 g; Envigo, the Netherlands) were used for the experiments. Following arrival, animals were housed in groups of 5 in polypropylene cages (40×50×20 cm) with wire mesh top in a temperature (22±2° C.) and humidity (55±15%) controlled environment on a 12 hour light cycle (07.00-19.00). Following surgery, animals were housed individually (cages 30×30×40 cm). Standard diet (SDS Diets, RM1 PL) and domestic quality mains water were available ad libitum.
Mice were anesthetized using isoflurane (2% and 500 mL/min O2). Before surgery, Finadyne (1 mg/kg, s.c.) was administered for analgesia during surgery and the post-surgical recovery period. A mixture of bupivacaine and epinephrine was used for local analgesia of the incision site.
The animals were placed in a stereotaxic frame (Kopf instruments, USA). MetaQuant microdialysis probes with a 3 mm exposed polyacrylonitrile membrane (MQ-PAN 33) were implanted bilaterally into the left and right striatum (coordinates for the tip of the probe: AP=+0.8 mm (to bregma), ML=+/−1.7 mm (to midline), DV=−4.0 mm (to dura) with an angle of 0° and the incisor bar set at 0.0 mm. All coordinates were based on “The mouse brain in stereotaxic coordinates” by Paxinos and Franklin (2008). The probes were attached to the skull with a stainless-steel screw and dental cement.
The monosodium salt of the compound of formula (I) was formulated in sterilized tap water at concentrations (with respect to the non-salt form) of 0.2 and 4 mg/mL for oral dosing at 5 mL/kg; 1 mg/kg and 20 mg/kg, respectively.
The MetaQuant microdialysis probes were connected with flexible PEEK tubing (Western Analytical Products Inc. USA; PK005-020) to a microperfusion pump (Harvard) and perfused with a slow flow of artificial CSF (perfusate), containing 147 mM NaCl, 3.0 mM KCl, 1.2 mM CaCl2, and 1.2 mM MgCl2, at a flow rate of 0.12 μL/min and a carrier flow of UP+0.02 M FA+0.04% ascorbic acid at o.8 μL/min. After a minimum of two hours of prestabilisation, microdialysis samples were collected in 60 minute intervals. Following collection of two baseline samples, the compound of formula (I) (1 or 20 mg/kg in sterilised tap water) was administered orally at t=0 minutes. Samples were collected into mini-vials (Microbiotech/se AB, Sweden; 4001029) using an automated fraction collector (UV 8301501, TSE, Univentor, Malta). At the end of the experiment, the animals were sacrificed.
Microdialysate samples from MetaQuant probes contained a nominal volume of 55.2 μL dialysate. Levels of the compound of formula (I) in MetaQuant microdialysate samples were quantified by LC-MS/MS.
The dialysate samples were mixed with acetonitrile and an aliquot of this mixture was injected into the LC system by an automated sample injector (SIL-20AD, Shimadzu, Japan). Calibrators and in-run QC samples were prepared in analytical dialysate of the same composition as the microdialysate samples. […]
Suitable in-run calibration curves were fitted using weighted (1/x) regression and the sample concentrations were determined using these calibration curves. […]

- average peak levels in left and right striatal dialysate (1 mg/kg oral (monosodium salt in sterilised tap water)): 12 to 13 nM
- time of average peak levels after compound administration (1 mg/kg oral): 5 h
- average peak levels in left and right striatal dialysate (20 mg/kg oral (monosodium salt in sterilised tap water)): 201 to 243 nM
- time of average peak levels after compound administration (20 mg/kg oral): 6 h
SMILES: CC(C)n1ccc(S(=O)(=O)NC(=O)Nc2c3c(cc4c2CCC4)CCC3)n1 [compound of formula (I)]
- blood-brain barrier penetration (oral administration): cross the blood-brain barrier following oral administration
